From the supplement of paper PMC10331698
± gives the standard deviation of the averaged measurements.

Legend:
Assay in all cases: level (log10 ratio to DMSO vehicle control); higher = higher biomarker level / cell amount than vehicle control
Conditions in all cases: in DMSO
[1] = compound: O=C(O)C(F)(F)C(F)(F)C(F)(F)C(F)(F)C(F)(F)C(F)(F)C(F)(F)C(F)(F)C(F)(F)F [Perfluorodecanoic acid]
Description: (§1)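 BioMAP Diversity Plus panel of 12 human primary cell co-culture systems (3C, 4H, LPS, SAg, BT, BF4T, BE3C, CASM3C, HDF3CGF, KF3CT, MyoF, Mphg). Compounds were added 1 h before stimulation and left for 24 h (MyoF 48 h; BT 72 h for soluble read-outs or 6 d for IgG). Biomarkers were read by ELISA, cytotoxicity by SRB, PBMC viability and proliferation by Alamar Blue. Each well value was divided by the mean of 8 DMSO control wells on the same plate and log10 transformed; duplicate blinded samples were tested at 4 concentrations.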

[2] = compound: NC(=O)C(F)(F)C(F)(F)F [Pentafluoropropionamide]
Description: as §1

[3] = compound: O=C(O)C(F)(F)C(F)(F)C(F)(F)C(F)(F)F [Perfluoropentanoic acid]
Description: as §1

[4] = compound: C=CC(F)(F)C(F)(F)C(F)(F)C(F)(F)C(F)(F)C(F)(F)C(F)(F)C(F)(F)C=C [1,8-Divinylperfluorooctane]
Description: as §1

[5] = compound: O=C(O)C(F)(F)C(F)(F)C(F)(F)OC(F)(C(F)(F)F)C(F)(F)F [Perfluoro-4-isopropoxybutanoic acid]
Description: as §1

[6] = compound: COC(=O)CCC(F)(F)C(F)(F)C(F)(F)C(F)(F)F [Methyl 2H,2H,3H,3H-perfluoroheptanoate]
Description: as §1

[7] = compound: O=C(O)C(F)(F)OC(F)(F)C(F)(F)OC(F)(F)F [Perfluoro-3,6-dioxaheptanoic acid]
Description: as §1

Test System | level (log10) ([1]; 6700 nM) | level (log10) ([1]; 20000 nM) | level (log10) ([2]; 6700 nM) | level (log10) ([2]; 20000 nM) | level (log10) ([2]; 60000 nM) | level (log10) ([3]; 6700 nM) | level (log10) ([3]; 20000 nM) | level (log10) ([3]; 60000 nM) | level (log10) ([4]; 6700 nM) | level (log10) ([4]; 20000 nM) | level (log10) ([5]; 6700 nM) | level (log10) ([5]; 20000 nM) | level (log10) ([5]; 60000 nM) | level (log10) ([6]; 6700 nM) | level (log10) ([6]; 20000 nM) | level (log10) ([6]; 60000 nM) | level (log10) ([7]; 6700 nM) | level (log10) ([7]; 20000 nM) | level (log10) ([7]; 60000 nM)
HDF3CGF:TIMP-1 | 0.016 ± 0.037 | -0.0995 ± 0.03 | -0.0265 ± 0.0092 | -0.01 ± 0.018 | 0.0045 ± 0.032 | -0.0195 ± 0.0021 | -0.032 ± 0.014 | 0.0115 ± 0.011 | 0.014 ± 0.016 | 0.008 ± 0.017 | -0.023 ± 0.048 | -0.0155 ± 0.043 | 0.018 ± 0.11 | -0.0015 ± 0.022 | 0.008 ± 0.014 | 0.014 ± 0.011 | -0.0265 ± 0.029 | -0.012 ± 0.052 | -0.0655 ± 0.074
HDF3CGF:CD54/ICAM-1 | -0.0485 ± 0.0092 | -0.071 | -0.01 ± 0.052 | 0.017 ± 0.024 | -0.0025 ± 0.0064 | 0.039 ± 0.054 | 0.035 ± 0.033 | 0.0485 ± 0.046 | 0.003 ± 0.028 | 0.0475 ± 0.028 | -0.009 ± 0.0071 | -0.01 ± 0.0028 | -0.031 ± 0.017 | -0.0095 ± 0.0092 | 0.012 ± 0.0028 | -0.0025 ± 0.028 | 0.002 ± 0.0014 | -0.003 ± 0.0028 | -0.008 ± 0.014
KF3CT:CCL2/MCP-1 | -0.127 ± 0.023 | -0.321 ± 0.032 | -0.0205 ± 0.015 | -0.0285 ± 0.023 | 0.0155 ± 0.071 | 0.002 ± 0.02 | -0.025 ± 0.025 | 0.0215 ± 0.05 | -0.0165 ± 0.016 | 0.009 ± 0.042 | 0.0235 ± 0.039 | 0.032 ± 0.018 | 0.023 ± 0.052 | -0.0185 ± 0.035 | -0.0515 ± 0.026 | 0.013 ± 0.048 | -0.0175 ± 0.016 | -0.0345 ± 0.0078 | 0.0395 ± 0.028
HDF3CGF:Proliferation 72hr | 0.115 ± 0.025 | -0.934 ± 0.037 | 0.0225 ± 0.018 | 0.045 ± 0.042 | 0.076 ± 0.013 | 0.002 ± 0.041 | 0.0505 ± 0.11 | 0.022 ± 0.03 | 0.103 ± 0.028 | -0.046 ± 0.028 | 0.0305 ± 0.037 | 0.04 ± 0.055 | 0.051 ± 0.011 | 0.011 ± 0.0057 | 0.013 ± 0.0057 | 0.0705 ± 0.044 | 0.0205 ± 0.05 | 0.055 ± 0.034 | 0.06 ± 0.0014
MyoF:Decorin | 0.0055 ± 0.0064 | -0.071 ± 0.018 | 0.01 ± 0.017 | 0.0135 ± 0.00071 | 0.0325 ± 0.028 | -0.015 ± 0.0028 | -0.0125 ± 0.0092 | 0.005 ± 0.048 | 0.0075 ± 0.013 | 0.0335 ± 0.022 | 0.008 ± 0.0057 | 0.023 ± 0.027 | 0.065 ± 0.061 | -0.001 ± 0.013 | 0.015 ± 0.0028 | 0.0175 ± 0.052 | -0.0075 ± 0.03 | -0.013 ± 0.017 | 0.012 ± 0.04
HDF3CGF:CD106/VCAM-1 | -0.0085 ± 0.026 | -0.623 ± 0.057 | -0.0335 ± 0.022 | -0.0305 ± 0.025 | -0.0225 ± 0.044 | -0.0095 ± 0.005 | 0.0035 ± 0.036 | 0.0035 ± 0.022 | -0.028 ± 0.021 | -0.016 ± 0.017 | -0.027 ± 0.062 | -0.0545 ± 0.067 | -0.0545 ± 0.00071 | -0.0395 ± 0.033 | -0.0135 ± 0.053 | -0.0235 ± 0.066 | -0.033 ± 0.024 | 0.023 ± 0.082 | -0.039 ± 0.061
CASM3C:CXCL8/IL-8 | -0.0035 ± 0.0064 | -0.006 ± 0.0028 | -0.007 ± 0.014 | -0.017 ± 0.0071 | -0.0005 ± 0.012 | -0.01 ± 0.0085 | -0.019 ± 0.011 | -0.0015 ± 0.013 | -0.017 ± 0.011 | -0.0145 ± 0.015 | 0.0115 ± 0.019 | 0.0295 ± 0.016 | 0.076 ± 0.017 | -0.0135 ± 0.011 | -0.0115 ± 0.005 | -0.0085 ± 0.013 | 0.011 ± 0.037 | 0.018 ± 0.052 | 0.0295 ± 0.039
MyoF:MMP-1 | -0.0005 ± 0.023 | -0.048 ± 0.0057 | -0.0305 ± 0.063 | -0.0255 ± 0.0064 | 0.016 ± 0.058 | -0.009 ± 0.02 | -0.0215 ± 0.011 | 0.009 ± 0.071 | -0.054 ± 0.037 | 0.034 ± 0.099 | -0.0155 ± 0.0092 | 0.0115 ± 0.013 | 0.045 ± 0.051 | -0.009 ± 0.0071 | -0.019 ± 0.011 | 0.0305 ± 0.12 | -0.0045 ± 0.0021 | -0.0545 ± 0.013 | 0.041 ± 0.054
CASM3C:CD142/Tissue Factor | 0.008 ± 0.0042 | -0.0055 ± 0.012 | -0.0025 ± 0.022 | -0.0095 ± 0.018 | -0.0295 ± 0.026 | -0.002 ± 0.0071 | -0.013 ± 0.024 | -0.0225 ± 0.056 | 0.0035 ± 0.028 | -0.0085 ± 0.005 | -0.018 ± 0.033 | -0.011 ± 0.0042 | 0.0205 ± 0.025 | -0.021 ± 0.027 | 0.001 ± 0.013 | 0.015 ± 0.017 | -0.049 ± 0.089 | -0.0195 ± 0.097 | 0.014 ± 0.088
CASM3C:M-CSF | 0.0145 ± 0.0078 | 0.0345 ± 0.019 | -0.021 ± 0.038 | -0.0125 ± 0.00071 | 0.0205 ± 0.035 | -0.0055 ± 0.016 | -0.004 ± 0.017 | 0.0045 ± 0.032 | -0.0375 ± 0.011 | -0.0235 ± 0.023 | 0.0165 ± 0.032 | 0.0075 ± 0.039 | 0.0155 ± 0.043 | -0.0155 ± 0.016 | -0.031 ± 0.021 | 0.013 ± 0.054 | -0.09 ± 0.035 | -0.02 ± 0.023 | 0.034 ± 0.0014
KF3CT:TIMP-2 | 0.003 ± 0.03 | -0.051 ± 0.034 | 0.0005 ± 0.026 | 0.004 ± 0.027 | 0.0305 ± 0.013 | -0.013 ± 0.037 | -0.0065 ± 0.0035 | 0.017 ± 0.045 | -0.021 ± 0.021 | -0.0205 ± 0.032 | -0.0105 ± 0.011 | -0.005 ± 0.013 | 0.004 ± 0.021 | -0.004 ± 0.017 | -0.012 ± 0.011 | -0.0125 ± 0.043 | 0.024 ± 0.069 | -0.0365 ± 0.13 | -0.01 ± 0.12
CASM3C:CCL2/MCP-1 | 0.006 ± 0.02 | 0 ± 0.0042 | -0.003 ± 0.021 | -0.01 ± 0.0014 | 0.0075 ± 0.013 | -0.0085 ± 0.005 | -0.0125 ± 0.019 | -0.0015 ± 0.015 | -0.0225 ± 0.0078 | 0.002 ± 0.014 | -0.0255 ± 0.012 | -0.0305 ± 0.005 | 0.027 ± 0.034 | -0.0075 ± 0.011 | -0.003 ± 0.0071 | 0.004 ± 0.03 | -0.0445 ± 0.09 | -0.0325 ± 0.067 | -0.039 ± 0.095
CASM3C:CD141/Thrombomodulin | -0.015 ± 0.031 | -0.0125 ± 0.029 | -0.023 ± 0.034 | -0.0315 ± 0.011 | -0.0555 ± 0.015 | -0.0065 ± 0.016 | -0.0135 ± 0.035 | 0.0105 ± 0.005 | 0.0015 ± 0.022 | -0.0145 ± 0.0078 | 0 ± 0.018 | -0.005 ± 0.02 | 0.0135 ± 0.029 | -0.042 ± 0.024 | -0.017 ± 0.048 | 0.003 ± 0.017 | 0.032 ± 0.0085 | 0.019 ± 0.03 | 0.0295 ± 0.013
HDF3CGF:SRB | 0.0725 ± 0.044 | 0.131 ± 0.016 | -0.0105 ± 0.011 | 0.0265 ± 0.079 | 0.0445 ± 0.086 | 0.012 ± 0.011 | 0.01 ± 0.018 | 0.0125 ± 0.03 | 0.025 ± 0.051 | 0.069 ± 0.14 | -0.0125 ± 0.025 | 0.0115 ± 0.037 | -0.0055 ± 0.015 | 0.0005 ± 0.005 | -0.001 ± 0.057 | 0.0735 ± 0.091 | 0 ± 0.013 | -0.015 ± 0.018 | 0.0175 ± 0.039
HDF3CGF:EGFR | -0.075 ± 0.054 | -0.195 ± 0.026 | 0.006 ± 0.0085 | -0.005 ± 0.011 | 0.007 ± 0.021 | 0.008 ± 0.02 | -0.0265 ± 0.013 | -0.008 ± 0.027 | 0.033 | 0.005 ± 0.041 | -0.001 ± 0.034 | -0.0035 ± 0.022 | -0.012 ± 0.024 | -0.0045 ± 0.0078 | 0.0105 ± 0.029 | -0.0055 ± 0.053 | 0.033 ± 0.0071 | 0.031 ± 0.047 | 0.048 ± 0.054
